Source: patent US9145391B2, “Bipyridylaminopyridines as Syk inhibitors” (Merck Sharp & Dohme Corp., priority 2011, dated 2015)

What follows are molecules tested against recombinant human GST-Syk (Homo sapiens (Human), UniProt P43405) (assay: Homogeneous Time-Resolved Fluorescence (HTRF) assay for the recombinant human Syk enzyme). Settings: recombinant human GST-Syk 5 pM, ATP 25 μM, read-out: rhSyk IC50.
Assay type: biochemical
Experimental: Syk inhibition may be determined using the following assay protocol: Homogeneous Time-Resolved Fluorescence (HTRF) Assay for the Recombinant Human Syk Enzyme: A recombinant GST-hSyk fusion protein was used to measure potency of compounds to inhibit human Syk activity. […] To initiate the reaction the biotinylated substrate peptide (250 nM final concentration) that contains the phosphorylation site for Syk was added with magnesium (5 mM final concentration) and ATP (25 μM final concentration). […] Final volume of the quenching solution was 10 μL.

Going from CCCCCCOC(=O)[C@H]1CC[C@H](C(C)(O)c2ccc(-c3cc(C)cc(Nc4cc(C(F)F)ccn4)n3)cn2)CC1 (single isomer, unassigned) [Example 19-9, hexyl trans-4-[(1R or 1S)-1-(6-{[4-(difluoromethyl)pyridin-2-yl]amino}-4-methyl-2,3′-bipyridin-6′-yl)-1-hydroxyethyl] cyclohexanecarboxylate] to CCCCCCCCOC(=O)[C@H]1CC[C@H](C(C)(O)c2ccc(-c3cc(C)cc(Nc4cc(C(F)F)ccn4)n3)cn2)CC1 (single isomer, unassigned) [Example 19-11, octyl trans-4-[(1R or 1S)-1-(6-{[4-(difluoromethyl)pyridin-2-yl]amino}-4-methyl-2,3′-bipyridin-6′-yl)-1-hydroxyethyl] cyclohexanecarboxylate], the IC50 rises from 190 nM to > 10000 nM. The first is the more potent here.

Compared with Cc1cc(Nc2cc(C(F)F)ccn2)nc(-c2ccc(C(C)(O)[C@H]3CC[C@H](C(=O)OC4CCCCC4)CC3)nc2)c1 (single isomer, unassigned) [Example 19-12, cyclohexyl trans-4-[(1R or 1S)-1-(6-{[4-(difluoromethyl)pyridin-2-yl]amino}-4-methyl-2,3′-bipyridin-6′-yl)-1-hydroxyethyl] cyclohexanecarboxylate], Cc1cc(Nc2cc(C(F)F)ccn2)nc(-c2ccc(C(C)(O)[C@H]3CC[C@H](C(=O)OCC4CCCCC4)CC3)nc2)c1 (single isomer, unassigned) [Example 19-14, cyclohexylmethyl trans-4-[(1R or 1S)-1-(6-{[4-(difluoromethyl)pyridin-2-yl]amino}-4-methyl-2,3′-bipyridin-6′-yl)-1-hydroxyethyl] cyclohexanecarboxylate] is 4.5-fold higher in IC50: 47 nM for the first, 210 nM for the second. The first is the more potent here.

First: Cc1cc(Nc2cc(C(F)F)ccn2)nc(-c2ccc(C(C)(O)[C@H]3CC[C@H](C(=O)OC4CCOCC4)CC3)nc2)c1 (single isomer, unassigned) [Example 19-13, tetrahydro-2H-pyran-4-yl trans-4-[(1R or 1S)-1-(6-{[4-(difluoromethyl)pyridin-2-yl]amino}-4-methyl-2,3′-bipyridin-6′-yl)-1-hydroxyethyl] cyclohexanecarboxylate]
Second: Cc1cc(Nc2cc(C(F)F)ccn2)nc(-c2ccc(C(C)(O)[C@H]3CC[C@H](C(=O)OC(C)OC(=O)OC4CCCCC4)CC3)nc2)c1 (single isomer, unassigned) [Example 20-4, 1-{[(cyclohexyloxy)carbonyl]oxy}ethyl trans-4-[(1R or 1S)-1-(6-{[4-(difluoromethyl)pyridin-2-yl]amino}-4-methyl-2,3′-bipyridin-6′-yl)-1-hydroxyethyl] cyclohexanecarboxylate]
The IC50 of the first is 59-fold lower: 8.7 nM for the first, 510 nM for the second.

Compared with CCOCCOCCOC(=O)[C@H]1CC[C@H](C(C)(O)c2ccc(-c3cc(C)cc(Nc4cc(C(F)F)ccn4)n3)cn2)CC1 (single isomer, unassigned) [Example 19-16, 2-(2-ethoxyethoxy)ethyl trans-4-[(1R or 1S)-1-(6-{[4-(difluoromethyl)pyridin-2-yl]amino}-4-methyl-2,3′-bipyridin-6′-yl)-1-hydroxyethyl] cyclohexanecarboxylate], Cc1cc(Nc2cc(C(F)F)ccn2)nc(-c2ccc(C(C)(O)[C@H]3CC[C@H](C(=O)OCCN(C)C)CC3)nc2)c1 (single isomer, unassigned) [Example 19-20, 2-(dimethylamino)ethyl trans-4-[(1R or 1S)-1-(6-{[4-difluoromethyl)pyridin-2-yl]amino}-4-methyl-2,3′-bipyridin-6′-yl)-1-hydroxyethyl] cyclohexanecarboxylate] is 5.2-fold lower in IC50: 12 nM for the first, 2.3 nM for the second.

First: COC(=O)COC(=O)[C@H]1CC[C@H](C(C)(O)c2ccc(-c3cc(C)cc(Nc4cc(C(F)F)ccn4)n3)cn2)CC1 (single isomer, unassigned) [Example 19-17, 2-methoxy-2-oxoethyl trans-4-[(1R or 1S)-1-(6-{[4-(difluoromethyl)pyridin-2-yl]amino}-4-methyl-2,3′-bipyridin-6′-yl)-1-hydroxyethyl] cyclohexanecarboxylate]
Second: Cc1cc(Nc2cc(C(F)F)ccn2)nc(-c2ccc(C(C)(O)[C@H]3CC[C@H](C(=O)OCOC(=O)OC(C)C)CC3)nc2)c1 (single isomer, unassigned) [Example 20-1, {[(propan-2-yloxy)carbonyl]oxy}methyl trans-4-[(1R or 1S)-1-(6-{[4-(difluoromethyl)pyridin-2-yl]amino}-4-methyl-2,3′-bipyridin-6′-yl)-1-hydroxyethyl] cyclohexanecarboxylate]
The IC50 of the first is 4.4-fold lower: 4.3 nM for the first, 19 nM for the second.

Going from Cc1cc(Nc2cc(C(F)F)ccn2)nc(-c2ccc(C(C)(O)[C@H]3CC[C@H](C(=O)OCc4oc(=O)oc4C)CC3)nc2)c1 (single isomer, unassigned) [Example 19-21, (5-methyl-2-oxo-1,3-dioxol-4-yl)methyl trans-4-[(1R or 1S)-1-(6-{[4-(difluoromethyl)pyridin-2-yl]amino}-4-methyl-2,3′-bipyridin-6′-yl)-1-hydroxyethyl] cyclohexanecarboxylate] to CCOC(=O)OC(C)OC(=O)[C@H]1CC[C@H](C(C)(O)c2ccc(-c3cc(C)cc(Nc4cc(C(F)F)ccn4)n3)cn2)CC1 (single isomer, unassigned) [Example 20-2, 1-[(ethoxycarbonyl)oxy]ethyl trans-4-[(1R or 1S)-1-(6-{[4-(difluoromethyl)pyridin-2-yl]amino}-4-methyl-2,3′-bipyridin-6′-yl)-1-hydroxyethyl] cyclohexanecarboxylate], the IC50 rises from 5.2 nM to 69 nM (13-fold). The first is the more potent here.

First: Cc1cc(Nc2cc(C(F)F)ccn2)nc(-c2ccc(C(C)(O)[C@H]3CC[C@H](C(=O)OC(C)OC(=O)OC(C)C)CC3)nc2)c1 (single isomer, unassigned) [Example 20-3, 1-{[(propan-2-yloxy)carbonyl]oxy}ethyl trans-4-[(1R or 1S)-1-(6-{[4-(difluoromethyl)pyridin-2-yl]amino}-4-methyl-2,3′-bipyridin-6′-yl)-1-hydroxyethyl] cyclohexanecarboxylate]
Second: CCOC(=O)OC(C)OC(=O)[C@H]1CC[C@H](C(C)(O)c2ccc(-c3cc(C)cc(Nc4cc(C(F)F)ccn4)n3)cn2)CC1 (single isomer, unassigned) [Example 20-5, 1-[(ethoxycarbonyl)oxy] ethyl trans-4-[(1R or 1S)-1-(6-{[4-(difluoromethyl)pyridin-2-yl]amino}-4-methyl-2,3′-bipyridin-6′-yl)-1-hydroxyethyl] cyclohexanecarboxylate]
The IC50 of the first is 3.4-fold higher: 110 nM for the first, 32 nM for the second. The second is the more potent here.

Going from CCOC(=O)OC(C)OC(=O)[C@H]1CC[C@H](C(C)(O)c2ccc(-c3cc(C)cc(Nc4cc(C(F)F)ccn4)n3)cn2)CC1 (single isomer, unassigned) [Example 20-6, 1-[(ethoxycarbonyl)oxy]ethyl trans-4-[(1R or 1S)-1-(6-{[4-(difluoromethyl)pyridin-2-yl]amino}-4-methyl-2,3′-bipyridin-6′-yl)-1-hydroxyethyl] cyclohexanecarboxylate] to CC(=O)OC(C)OC(=O)[C@H]1CC[C@H](C(C)(O)c2ccc(-c3cc(C)cc(Nc4cc(C(F)F)ccn4)n3)cn2)CC1 (single isomer, unassigned) [Example 21-2, 1-(acetyloxy)ethyl trans-4-[(1R or 1S)-1-(6-{[4-(difluoromethyl)pyridin-2-yl]amino}-4-methyl-2,3′-bipyridin-6′-yl)-1-hydroxyethyl] cyclohexanecarboxylate], the IC50 falls from 21 nM to 4.3 nM (4.9-fold). The second is the more potent here.

First: Cc1cc(Nc2cc(C(F)F)ccn2)nc(-c2ccc(C(C)(O)[C@H]3CC[C@H](C(=O)OC(C)OC(=O)OC(C)C)CC3)nc2)c1 (single isomer, unassigned) [Example 20-7, 1-{[(propan-2-yloxy)carbonyl]oxy}ethyl trans-4-[(1R or 1S)-1-{6-{[4-(difluoromethyl)pyridin-2-yl]amino}-4-methyl-2,3′-bipyridin-6′-yl)-1-hydroxyethyl] cyclohexanecarboxylate]
Second: CC(=O)OC(C)OC(=O)[C@H]1CC[C@H](C(C)(O)c2ccc(-c3cc(C)cc(Nc4cc(C(F)F)ccn4)n3)cn2)CC1 (single isomer, unassigned) [Example 21-3, 1-(acetyloxy)ethyl trans-4-[(1R or 1S)-1-(6-{[4-(difluoromethyl)pyridin-2-yl]amino}-4-methyl-2,3′-bipyridin-6′-yl)-1-hydroxyethyl] cyclohexanecarboxylate]
The IC50 of the first is 67-fold higher: 100 nM for the first, 1.5 nM for the second. The second is the more potent here.

Going from Cc1cc(Nc2cc(C(F)F)ccn2)nc(-c2ccc(C(C)(O)[C@H]3CC[C@H](C(=O)OC(C)OC(=O)OC(C)C)CC3)nc2)c1 (single isomer, unassigned) [Example 20-8, 1-{[(propan-2-yloxy)carbonyl]oxy}ethyl trans-4-[(1R or 1S)-1-(6-{[4-(difluoromethyl)pyridin-2-yl]amino}-4-methyl-2,3′-bipyridin-6′-yl)-1-hydroxyethyl] cyclohexanecarboxylate] to Cc1cc(Nc2cc(C(F)F)ccn2)nc(-c2ccc(C(C)(O)[C@H]3CC[C@H](C(=O)OC(C)OC(=O)OC4CCCCC4)CC3)nc2)c1 (single isomer, unassigned) [Example 20-9, 1-{[(cyclohexyloxy)carbonyl]oxy}ethyl trans-4-[(1R or 1S)-1-(6-{[4-(difluoromethyl)pyridin-2-yl]amino}-4-methyl-2,3′-bipyridin-6′-yl)-1-hydroxyethyl] cyclohexanecarboxylate], the IC50 rises from 50 nM to 140 nM (2.8-fold).

In the case of Cc1cc(Nc2cc(C(F)F)ccn2)nc(-c2ccc(C(C)(O)[C@H]3CC[C@H](C(=O)OC(C)OC(=O)OC4CCCCC4)CC3)nc2)c1 (single isomer, unassigned) [Example 20-10, 1-{[(cyclohexyloxy)carbonyl]oxy}ethyl trans-4-[(1R or 1S)-1-(6-{[4-(difluoromethyl)pyridin-2-yl]amino}-4-methyl-2,3′-bipyridin-6′-yl)-1-hydroxyethyl] cyclohexanecarboxylate], the IC50 is reported as 190 nM.
